According to patent US11786534B2 (TAIHO PHARMACEUTICAL CO., LTD., priority 2019, dated 2023):
Read-outs that look alike come from different tables or passages of the source.

Columns and labels:
[1] = molecular target: Ba/F3-EGFR (L858R/T790M/C797S) (Homo sapiens, UniProt P00533, T790M/C797S/L858R, cells depend on it); test: Growth inhibition of cell line expressing EGFR (L858R/T790M/C797S); assay type: cell-based, mouse; details: read-out: BaF3_EGFR (L858R/T790M/C797S) IC50 value
Excerpt: (§1) Test for inhibitory activity against the growth of cell lines expressing wild-type and mutated EGFRs (in vitro)
(§2) (1) Mouse cell line Ba/F3-EGFR (d746-750/T790M/C797S) transfected with and stably expressing EGFR (d746-750/T790M/C797S), mouse cell Ba/F3-EGFR (L858R/T790M/C797S) transfected with and stably expressing EGFR (L858R/T790M/C797S), and mouse cell line Ba/F3-EGFR (WT) transfected with and stably expressing wild-type EGFR were each suspended in RPMI-1640 cell culture medium (RPMI-1640, 10% FBS, 100 unit/ml penicillin, 0.1 mg/ml streptomycin). In the case of the mouse cell line Ba/F3-EGFR (WT), RPMI-1640 cell culture medium containing EGF at a final concentration of 50 ng/ml was used to suspend this cell line. It should be noted that the mouse cell line Ba/F3-EGFR (d746-750/T790M/C797S) transfected with and stably expressing EGFR (d746-750/T790M/C797S), the mouse cell line Ba/F3-EGFR (L858R/T790M/C797S) transfected with and stably expressing EGFR (L858R/T790M/C797S) and the mouse cell line Ba/F3-EGFR (WT) transfected with and stably expressing wild-type EGFR were prepared by using nucleotide sequences encoding the proteins of SEQ ID NOs: 1 and 2 in accordance with Test Example 1 in WO2018/079310, These cell suspensions were seeded in wells of 96-well flat -bottomed plates. The compounds of the present invention were dissolved in DMSO, and serial dilutions of these test compounds were prepared with DMSO (1000-fold of the final concentration). Each test compound solution in DMSO or DMSO alone was diluted with RPMI-1640 cell culture medium for each cell line, and this dilution was added to wells of the cell culture plate such that the final concentration of DMSO was 0.1%, followed by culture at 37° C. for 3 days in a 5% carbon dioxide gas-containing incubator. Before and after addition of each test compound solution in DMSO, the number of cells was counted using the CellTiter-Glo® system (Promega) on the basis of the protocol recommended by Promega.
(§3) In each cell line, the rate of cell growth inhibition was calculated according to the equation shown below in wells to which each test compound was added at different concentrations. Moreover, the inhibition rate at each concentration was plotted for each test compound, and the concentration of each test compound required to give 50% cell survival rate, i.e., IC50 (nM) was determined by curve fitting software XLfit (IDBS).
(§4) Cell survival rate (%)=T/C×100
(§5) T: emission intensity in a well cultured for 3 days after addition of a test compound solution
(§6) C: emission intensity in a well cultured for 3 days after addition of DMSO
(§7) In accordance with the same procedures as shown in Test Example 2, the compounds of the present invention were tested for their inhibitory activity against the growth of the cell hoes expressing wild-type and mutated EGFRs.

[2] = molecular target: Ba/F3-EGFR (d746-750/T790M/C797S) (Homo sapiens, UniProt P00533, DEL746-750/T790M/C797S, cells depend on it); test: Growth inhibition of cell line expressing EGFR (d746-750/T790M/C797S); assay type: cell-based, mouse; details: read-out: BaF3_EGFR (d746-750/T790M/C797S) IC50 value
Chain of Ba/F3-EGFR (d746-750/T790M/C797S) (P00533 with tags, fused parts or gaps DEL746-750/T790M/C797S): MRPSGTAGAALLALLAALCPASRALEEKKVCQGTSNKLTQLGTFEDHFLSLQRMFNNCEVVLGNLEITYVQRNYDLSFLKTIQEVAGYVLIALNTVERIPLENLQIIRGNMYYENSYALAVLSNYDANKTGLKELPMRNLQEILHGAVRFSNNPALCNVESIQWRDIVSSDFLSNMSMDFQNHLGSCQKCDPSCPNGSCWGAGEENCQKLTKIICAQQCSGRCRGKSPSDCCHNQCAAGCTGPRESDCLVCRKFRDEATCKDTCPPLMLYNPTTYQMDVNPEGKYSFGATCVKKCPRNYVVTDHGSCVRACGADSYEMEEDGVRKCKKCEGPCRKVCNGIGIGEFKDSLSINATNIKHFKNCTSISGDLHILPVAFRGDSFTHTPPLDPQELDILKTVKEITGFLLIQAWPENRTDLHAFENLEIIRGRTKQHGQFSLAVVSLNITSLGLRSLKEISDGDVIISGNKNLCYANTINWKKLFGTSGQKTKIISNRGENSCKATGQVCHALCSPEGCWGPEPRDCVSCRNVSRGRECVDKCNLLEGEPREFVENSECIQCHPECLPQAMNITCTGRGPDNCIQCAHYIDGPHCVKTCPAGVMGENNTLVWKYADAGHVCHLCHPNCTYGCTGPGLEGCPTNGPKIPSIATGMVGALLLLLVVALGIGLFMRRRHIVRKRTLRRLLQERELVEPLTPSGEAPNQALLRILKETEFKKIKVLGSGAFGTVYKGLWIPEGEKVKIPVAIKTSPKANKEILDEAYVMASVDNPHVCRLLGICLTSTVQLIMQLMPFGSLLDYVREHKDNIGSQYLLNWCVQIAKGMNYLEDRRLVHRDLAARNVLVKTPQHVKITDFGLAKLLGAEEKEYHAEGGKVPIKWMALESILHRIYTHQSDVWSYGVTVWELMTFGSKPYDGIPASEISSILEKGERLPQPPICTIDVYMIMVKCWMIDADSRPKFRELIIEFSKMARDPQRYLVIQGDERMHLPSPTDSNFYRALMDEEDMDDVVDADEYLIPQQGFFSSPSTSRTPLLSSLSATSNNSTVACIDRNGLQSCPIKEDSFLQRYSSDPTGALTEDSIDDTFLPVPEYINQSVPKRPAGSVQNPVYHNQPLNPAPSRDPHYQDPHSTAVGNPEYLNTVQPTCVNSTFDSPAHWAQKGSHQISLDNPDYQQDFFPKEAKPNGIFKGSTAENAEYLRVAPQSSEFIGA
Excerpt: as §1, §2, §3, §4, §5, §6, §7

human EGFR (L858R/C797S) = molecular target: T1, human EGFR (L858R/C797S) (Homo sapiens, UniProt P00533, C797S/L858R); test: Inhibitory activity against EGFR (L858R/C797S) kinase; assay type: biochemical; details: Test Example 1, Table 5; ATP 4 μM, 90 minutes
T1 construct: purchased SignalChem
T1 sequence (P00533 25-1210 C797S/L858R): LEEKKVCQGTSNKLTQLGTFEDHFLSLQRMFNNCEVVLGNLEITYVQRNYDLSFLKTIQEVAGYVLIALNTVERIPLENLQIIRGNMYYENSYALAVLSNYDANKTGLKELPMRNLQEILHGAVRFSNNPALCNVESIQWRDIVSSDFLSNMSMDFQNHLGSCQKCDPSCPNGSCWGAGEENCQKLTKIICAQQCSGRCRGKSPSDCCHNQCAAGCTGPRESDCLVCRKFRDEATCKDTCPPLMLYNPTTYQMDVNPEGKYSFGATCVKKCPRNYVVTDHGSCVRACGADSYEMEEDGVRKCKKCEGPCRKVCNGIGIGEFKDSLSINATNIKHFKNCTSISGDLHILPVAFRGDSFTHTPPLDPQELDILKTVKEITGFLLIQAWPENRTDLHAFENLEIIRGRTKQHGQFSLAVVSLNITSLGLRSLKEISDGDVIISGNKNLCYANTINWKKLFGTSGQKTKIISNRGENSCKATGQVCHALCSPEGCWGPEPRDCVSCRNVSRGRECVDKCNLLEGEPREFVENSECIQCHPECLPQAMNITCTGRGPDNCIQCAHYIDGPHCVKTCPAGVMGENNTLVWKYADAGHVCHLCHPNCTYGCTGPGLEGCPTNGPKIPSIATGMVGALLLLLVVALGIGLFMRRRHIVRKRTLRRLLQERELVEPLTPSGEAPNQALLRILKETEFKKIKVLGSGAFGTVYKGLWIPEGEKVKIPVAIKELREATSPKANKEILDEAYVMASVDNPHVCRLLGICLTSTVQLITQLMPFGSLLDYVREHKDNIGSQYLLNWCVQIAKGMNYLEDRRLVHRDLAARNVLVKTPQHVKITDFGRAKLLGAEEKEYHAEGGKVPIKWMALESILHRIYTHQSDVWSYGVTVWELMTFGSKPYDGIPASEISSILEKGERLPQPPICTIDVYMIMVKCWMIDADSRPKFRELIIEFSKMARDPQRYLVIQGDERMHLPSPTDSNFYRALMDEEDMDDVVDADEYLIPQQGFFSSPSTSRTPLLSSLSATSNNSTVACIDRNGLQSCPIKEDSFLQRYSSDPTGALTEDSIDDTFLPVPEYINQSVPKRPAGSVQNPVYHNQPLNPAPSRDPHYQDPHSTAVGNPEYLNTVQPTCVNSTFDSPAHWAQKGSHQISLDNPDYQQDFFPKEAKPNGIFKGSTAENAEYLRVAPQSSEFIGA
Method in brief: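 Purified recombinant human EGFR (C797S/L858R) kinase, final ATP 4 μM, 90-minute kinase reaction, otherwise per the EGFR (d746-750/C797S) protocol. IC50 (nM) determined from inhibition data.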

[3] = molecular target: T2, human EGFR (d746-750/C797S) (Homo sapiens, UniProt P00533, C797S/DEL746-750); test: Inhibitory activity against EGFR (d746-750/C797S) kinase; assay type: biochemical
T2 construct: purchased SignalChem
T2 sequence (P00533 with tags, fused parts or gaps DEL746-750/C797S): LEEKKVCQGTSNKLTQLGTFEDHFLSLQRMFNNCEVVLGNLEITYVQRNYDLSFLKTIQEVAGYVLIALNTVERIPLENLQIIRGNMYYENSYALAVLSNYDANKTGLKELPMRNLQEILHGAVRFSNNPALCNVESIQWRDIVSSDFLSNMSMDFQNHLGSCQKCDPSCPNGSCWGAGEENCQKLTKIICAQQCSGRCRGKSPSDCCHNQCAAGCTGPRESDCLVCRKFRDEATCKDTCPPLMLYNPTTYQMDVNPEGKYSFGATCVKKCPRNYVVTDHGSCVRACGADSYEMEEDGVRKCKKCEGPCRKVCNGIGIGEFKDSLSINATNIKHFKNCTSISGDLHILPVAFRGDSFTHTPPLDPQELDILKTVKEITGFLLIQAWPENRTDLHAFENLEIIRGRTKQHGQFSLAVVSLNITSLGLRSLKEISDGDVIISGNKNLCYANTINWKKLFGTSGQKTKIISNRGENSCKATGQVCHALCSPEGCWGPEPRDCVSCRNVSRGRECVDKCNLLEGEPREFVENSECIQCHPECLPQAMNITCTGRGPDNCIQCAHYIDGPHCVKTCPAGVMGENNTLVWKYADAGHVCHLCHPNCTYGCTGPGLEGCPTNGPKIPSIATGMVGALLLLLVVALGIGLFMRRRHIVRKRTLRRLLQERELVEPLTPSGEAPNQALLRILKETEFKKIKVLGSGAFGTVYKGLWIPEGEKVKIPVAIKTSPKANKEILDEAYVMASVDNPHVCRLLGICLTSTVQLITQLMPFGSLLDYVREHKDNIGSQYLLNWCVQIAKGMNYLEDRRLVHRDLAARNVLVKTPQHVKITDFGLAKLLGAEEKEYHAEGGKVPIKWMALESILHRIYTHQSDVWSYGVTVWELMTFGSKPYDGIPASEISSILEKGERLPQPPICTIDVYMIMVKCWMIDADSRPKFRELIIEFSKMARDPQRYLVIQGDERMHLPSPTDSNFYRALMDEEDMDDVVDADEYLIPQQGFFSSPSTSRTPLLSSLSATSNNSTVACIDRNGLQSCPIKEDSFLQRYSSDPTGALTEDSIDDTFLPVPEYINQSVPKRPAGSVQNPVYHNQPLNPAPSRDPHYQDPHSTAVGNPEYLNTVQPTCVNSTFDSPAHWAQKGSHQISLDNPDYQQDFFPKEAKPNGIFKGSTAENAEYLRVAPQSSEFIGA
Method in brief: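 Recombinant human EGFR d746-750/C797S in 13.5 mM Tris pH 7.5 with 2 mM DTT and 0.009% Tween-20. Reaction ran 60 min with 14 μM ATP, 20 mM MgCl2 and 12.5 mM MnCl2, stopped by 40 mM EDTA. IC50 in nM.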

[4] = Test Example 2, Table 7, culture 3 days, CellTiter-Glo
[5] = Test Example 1, Table 4, ATP 14 μM, 60 minutes
[6] = Test Example 4, Table 13, same procedures as Test Example 2

Chain of Ba/F3-EGFR (L858R/T790M/C797S) (P00533 whole entry T790M/C797S/L858R): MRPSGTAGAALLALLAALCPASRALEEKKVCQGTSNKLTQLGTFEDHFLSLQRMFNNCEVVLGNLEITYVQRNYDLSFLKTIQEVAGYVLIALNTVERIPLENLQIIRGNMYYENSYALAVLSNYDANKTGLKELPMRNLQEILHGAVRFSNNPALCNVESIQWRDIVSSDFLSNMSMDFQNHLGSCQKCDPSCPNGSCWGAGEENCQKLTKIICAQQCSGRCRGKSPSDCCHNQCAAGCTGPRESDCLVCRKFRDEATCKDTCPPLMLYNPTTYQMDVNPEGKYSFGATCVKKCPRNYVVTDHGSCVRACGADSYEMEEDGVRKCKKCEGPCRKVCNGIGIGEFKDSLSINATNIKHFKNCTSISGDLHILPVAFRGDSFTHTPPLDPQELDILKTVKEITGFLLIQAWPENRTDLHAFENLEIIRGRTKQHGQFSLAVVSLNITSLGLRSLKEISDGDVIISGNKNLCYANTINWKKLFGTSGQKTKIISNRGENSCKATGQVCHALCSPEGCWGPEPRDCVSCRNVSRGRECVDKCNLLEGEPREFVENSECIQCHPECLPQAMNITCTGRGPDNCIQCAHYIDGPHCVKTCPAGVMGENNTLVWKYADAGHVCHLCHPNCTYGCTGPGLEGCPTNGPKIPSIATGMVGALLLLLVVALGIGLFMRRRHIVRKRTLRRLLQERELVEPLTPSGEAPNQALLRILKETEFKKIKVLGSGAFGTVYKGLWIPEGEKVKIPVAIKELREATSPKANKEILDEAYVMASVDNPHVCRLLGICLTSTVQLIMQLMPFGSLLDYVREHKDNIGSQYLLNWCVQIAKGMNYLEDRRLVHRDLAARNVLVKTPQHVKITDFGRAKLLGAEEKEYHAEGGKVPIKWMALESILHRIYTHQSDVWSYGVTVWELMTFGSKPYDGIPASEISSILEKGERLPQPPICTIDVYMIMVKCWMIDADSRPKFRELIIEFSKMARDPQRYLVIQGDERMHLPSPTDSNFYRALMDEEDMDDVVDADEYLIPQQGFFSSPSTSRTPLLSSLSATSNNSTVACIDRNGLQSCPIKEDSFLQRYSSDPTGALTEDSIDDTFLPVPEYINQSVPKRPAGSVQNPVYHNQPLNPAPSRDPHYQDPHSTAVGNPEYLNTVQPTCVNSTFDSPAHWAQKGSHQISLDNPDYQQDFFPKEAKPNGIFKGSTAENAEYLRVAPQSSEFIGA

| Structure (SMILES) | GI50 [1, 4] [nM] | GI50 [2, 4] [nM] | IC50 (human EGFR (L858R/C797S)) [nM] | IC50 [3, 5] [nM] | GI50 [1, 6] [nM] | GI50 [2, 6] [nM] | IC50 ([3]; Test Example 3, Table 10; same procedures as 3) in Test Example 1) [nM] |
| --- | --- | --- | --- | --- | --- | --- | --- |
| C=CC(=O)N1CC[C@@H](n2cc(-c3cnc4ccccc4c3)c3c(N)ncnc32)C1 [Comparative Example A, (R)-1-(3(4-Amino-5-(quinolin-3-yl)-7H-pyrrolo[2,3-d]pyrimidin-7-yl)pyrrolidin-1-yl) -prop-2-en-1-one, reference compound] | 2260 | 3660 | 187 | 264 |  |  |  |
| C#Cc1c(-c2cnc3ccccc3c2)c2c(N)ncnc2n1[C@@H]1CCN(C(=O)C=C)C1 [Comparative Example B, (R)-1-(3-(4-Amino-6-ethynyl-5-(quinolin-3-yl)-7H-pyrrolo[2,3-d]pyrimidin-7-yl) -pyrrolidin-1-yl)-prop-2-en-1-one, reference compound] | 3590 | 1080 | 97 | 93 |  |  |  |
| C#Cc1c(-c2cnc3ccccc3c2)c2c(N)ncnc2n1C12CCC(NC(=O)c3ccccc3)(CC1)C2 [Example 1, N-(4-(4-Amino-6-ethynyl-5-(quinolin-3-yl)-7H-pyrrolo[2,3-d]pyrimidin-7-yl)bicyclo-[2.2.1]heptan-1-yl)benzamide] |  |  | 2.8 | 1.8 | 887 | 98 |  |
| C#Cc1c(-c2cnc3ccccc3c2)c2c(N)ncnc2n1C12CCC(N3CCOCC3)(CC1)C2 [Example 9, 6-Ethynyl-7-(4-morpholinobicyclo[2.2.1]heptan-1-yl)-5-(quinolin-3-yl)-7H-pyrrolo[2,3-d]pyrimidine-4-amine] |  |  | 1 | 0.36 | 592 | 59 |  |
| C#Cc1c(-c2cnc3ccccc3c2)c2c(N)ncnc2n1C12CCC(CNC(=O)c3cnc(C)cn3)(CC1)C2 [Example 14, N-((4-(4-Amino-6-ethynyl-5-(quinolin-3-yl)-7H-pyrrolo[2,3-d]pyrimidin-7-yl)bicyclo-[2.2.1]heptan-1-yl)methyl)-5-methylpyrazine-2-carboxamide] | 952 | 204 | 1.3 | 0.79 |  |  |  |
| C#Cc1c(-c2cnc3ccccc3c2)c2c(N)ncnc2n1C12CCC(NC(=O)c3ccnn3C3CC3)(CC1)C2 [Example 20, N-(4-(4-Amino-6-ethynyl-5-(quinolin-3-yl)-7H-pyrrolo[2,3-d]pyrimidin-7-yl)bicyclo-[2.2.1]heptan-1-yl)-1-cyclopropyl-1H-pyrazole-5-carboxamide] |  |  | 1.2 | 0.68 | 245 | 31 |  |
| C#Cc1c(-c2cnc3ccccc3c2)c2c(N)ncnc2n1C12CCC(NC(=O)C(F)F)(CC1)C2 [Example 27, N-(4-(4-Amino-6-ethynyl-5-(quinolin-3-yl)-7H-pyrrolo[2,3-d]pyrimidin-7-yl)bicyclo-[2.2.1]heptan-1-yl)-2,2-difluoroacetamide] |  |  | 2.4 | 1.2 | 754 | 110 |  |
| C#Cc1c(-c2cnc3ccccc3c2)c2c(N)ncnc2n1C12CCC(NC(=O)c3cncc(F)c3)(CC1)C2 [Example 35, N-(4-(4-Amino-6-ethynyl-5-(quinolin-3-yl)-7H-pyrrolo[2,3-d]pyrimidin-7-yl)-bicyclo-[2.2.1]heptan-1-yl)-5-fluoronicotinamide] |  |  | 0.84 | 0.55 | 348 | 44 |  |
| C#Cc1c(-c2cnc3ccccc3c2)c2c(N)ncnc2n1C12CCC(NC(=O)[C@@H]3CN(C)CCO3)(CC1)C2 [Example 63, (S)-N-(4-(4-Amino-6-ethynyl-5-(quinolin-3-yl)-7H-pyrrolo[2,3-d]pyrimidin-7-yl) -bicyclo[2.2.1]heptan-1-yl)-4-methylmorpholine-2-carboxamide] |  |  |  |  | 672 | 73 | 0.51 |

Next, values leading:

| GI50 [1, 4] [nM] | GI50 [2, 4] [nM] | IC50 (human EGFR (L858R/C797S)) [nM] | IC50 [3, 5] [nM] | GI50 [1, 6] [nM] | GI50 [2, 6] [nM] | IC50 ([3]; Test Example 3, Table 10; same procedures as 3) in Test Example 1) [nM] | Structure (SMILES) |
| --- | --- | --- | --- | --- | --- | --- | --- |
| 185 | 20 | 0.46 |  |  |  |  | C#Cc1c(-c2cnc3ccccc3c2)c2c(N)ncnc2n1C12CCC(NC(=O)c3cncnc3)(CC1)C2 [Example 2, N-(4-(4-Amino-6-ethynyl-5-(quinolin-3-yl)-7H-pyrrolo[2,3-d]pyrimidin-7-yl)bicyclo-[2.2.1]heptan-1-yl)pyrimidine-5-carboxamide] |
| 529 | 56 | 0.37 | < 0.3 |  |  |  | C#Cc1c(-c2cnc3ccccc3c2)c2c(N)ncnc2n1C12CCC(NC(=O)c3ccnnc3)(CC1)C2 [Example 3, N-(4-(4-Amino-6-ethynyl-5-(quinolin-3-yl)-7H-pyrrolo[2,3-d]pyrimidin-7-yl)bicyclo-[2.2.1]heptan-1-yl)pyridazine-4-carboxamide] |
| 910 | 239 | 0.69 | 0.67 |  |  |  | C#Cc1c(-c2cnc3ccccc3c2)c2c(N)ncnc2n1C12CCC(CNC(=O)c3ccnn3C)(CC1)C2 [Example 13, N-((4-(4-Amino-6-ethynyl-5-(quinolin-3-yl)-7H-pyrrolo[2,3-d]pyrimidin-7-yl)bicyclo-[2.2.1]heptan-1-yl)methyl)-1-methyl-1H-pyrazole-5-carboxamide] |
|  |  | 0.49 | 0.45 | 283 | 32 |  | C#Cc1c(-c2cnc3ccccc3c2)c2c(N)ncnc2n1C12CCC(NC(=O)c3ccc4ncnn4c3)(CC1)C2 [Example 16, N-(4-(4-Amino-6-ethynyl-5-(quinolin-3-yl)-7H-pyrrolo[2,3-d]pyrimidin-7-yl)bicyclo-[2.2.1]heptan-1-yl)-[1.2.4]triazolo[1,5-a]pyrimidin-6-carboxamide] |
|  |  | 0.67 | 0.78 | 1270 | 124 |  | C#Cc1c(-c2cnc3ccccc3c2)c2c(N)ncnc2n1C12CCC(NC(=O)c3cnns3)(CC1)C2 [Example 18, N-(4-(4-Amino-6-ethynyl-5-(quinolin-3-yl)-7H-pyrrolo[2,3-d]pyrimidin-7-yl)bicyclo-[2.2.1]heptan-1-yl)-1,2,3-thiadiazole-5-carboxamide] |
|  |  | 0.84 | 0.7 | 649 | 31 |  | C#Cc1c(-c2cnc3ccccc3c2)c2c(N)ncnc2n1C12CCC(NC(=O)c3nccn3C)(CC1)C2 [Example 23, N-(4-(4-Amino-6-ethynyl-5-(quinolin-3-yl)-7H-pyrrolo[2,3-d]pyrimidin-7-yl)bicyclo-[2.2.1]heptan-1-yl)-1-methyl-1H-imidazole-2-carboxamide] |
| 403 | 34 | 0.59 | 0.5 |  |  |  | C#Cc1c(-c2cnc3ccccc3c2)c2c(N)ncnc2n1C12CCC(NC(=O)c3ccnn3C)(CC1)C2 [Example 24, N-(4-(4-Amino-6-ethynyl-5-(quinolin-3-yl)-7H-pyrrolo[2,3-d]pyrimidin-7-yl)bicyclo-[2.2.1]heptan-1-yl)-1-methyl-1H-pyrazole-5-carboxamide] |
